Consider 29 compounds from patent US11046699B2, “Pyrazolo-pyrimidin-amino-cycloalkyl compounds and their therapeutic uses” (RAPT THERAPEUTICS, INC., priority 2018, dated 2021).

The structures appear in SMILES notation. Where two headings read alike, the source gives them in different places. Where only a bound is given, the exact number is not on record here.

This assay has as its target GCN2 (Homo sapiens, UniProt Q9P2K8). Nature of the assay: GCN2 enzymatic endpoint assay: phosphorylation of GFP-eIF2α measured by TR-FRET (Lanthascreen). It counts as biochemical. An outline of the steps:
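Read-out is the TR-FRET ratio of acceptor signal at 520 nm to terbium donor at 495 nm, rising with antibody binding to phosphorylated GFP-eIF2α. Endpoint format: 2 μM ATP, 80 nM substrate, 90 minutes at room temperature, EDTA stop.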
(In general: TR-FRET usually uses a lanthanide donor and a delayed reading to cut background.)

Setting [1] is: tested as described in Example 77, compound and/or hydrochloride, dihydrochloride or trifluoroacetic acid salt, read-out: IC 50 Activity.

Sequence of GCN2 (Q9P2K8 whole entry): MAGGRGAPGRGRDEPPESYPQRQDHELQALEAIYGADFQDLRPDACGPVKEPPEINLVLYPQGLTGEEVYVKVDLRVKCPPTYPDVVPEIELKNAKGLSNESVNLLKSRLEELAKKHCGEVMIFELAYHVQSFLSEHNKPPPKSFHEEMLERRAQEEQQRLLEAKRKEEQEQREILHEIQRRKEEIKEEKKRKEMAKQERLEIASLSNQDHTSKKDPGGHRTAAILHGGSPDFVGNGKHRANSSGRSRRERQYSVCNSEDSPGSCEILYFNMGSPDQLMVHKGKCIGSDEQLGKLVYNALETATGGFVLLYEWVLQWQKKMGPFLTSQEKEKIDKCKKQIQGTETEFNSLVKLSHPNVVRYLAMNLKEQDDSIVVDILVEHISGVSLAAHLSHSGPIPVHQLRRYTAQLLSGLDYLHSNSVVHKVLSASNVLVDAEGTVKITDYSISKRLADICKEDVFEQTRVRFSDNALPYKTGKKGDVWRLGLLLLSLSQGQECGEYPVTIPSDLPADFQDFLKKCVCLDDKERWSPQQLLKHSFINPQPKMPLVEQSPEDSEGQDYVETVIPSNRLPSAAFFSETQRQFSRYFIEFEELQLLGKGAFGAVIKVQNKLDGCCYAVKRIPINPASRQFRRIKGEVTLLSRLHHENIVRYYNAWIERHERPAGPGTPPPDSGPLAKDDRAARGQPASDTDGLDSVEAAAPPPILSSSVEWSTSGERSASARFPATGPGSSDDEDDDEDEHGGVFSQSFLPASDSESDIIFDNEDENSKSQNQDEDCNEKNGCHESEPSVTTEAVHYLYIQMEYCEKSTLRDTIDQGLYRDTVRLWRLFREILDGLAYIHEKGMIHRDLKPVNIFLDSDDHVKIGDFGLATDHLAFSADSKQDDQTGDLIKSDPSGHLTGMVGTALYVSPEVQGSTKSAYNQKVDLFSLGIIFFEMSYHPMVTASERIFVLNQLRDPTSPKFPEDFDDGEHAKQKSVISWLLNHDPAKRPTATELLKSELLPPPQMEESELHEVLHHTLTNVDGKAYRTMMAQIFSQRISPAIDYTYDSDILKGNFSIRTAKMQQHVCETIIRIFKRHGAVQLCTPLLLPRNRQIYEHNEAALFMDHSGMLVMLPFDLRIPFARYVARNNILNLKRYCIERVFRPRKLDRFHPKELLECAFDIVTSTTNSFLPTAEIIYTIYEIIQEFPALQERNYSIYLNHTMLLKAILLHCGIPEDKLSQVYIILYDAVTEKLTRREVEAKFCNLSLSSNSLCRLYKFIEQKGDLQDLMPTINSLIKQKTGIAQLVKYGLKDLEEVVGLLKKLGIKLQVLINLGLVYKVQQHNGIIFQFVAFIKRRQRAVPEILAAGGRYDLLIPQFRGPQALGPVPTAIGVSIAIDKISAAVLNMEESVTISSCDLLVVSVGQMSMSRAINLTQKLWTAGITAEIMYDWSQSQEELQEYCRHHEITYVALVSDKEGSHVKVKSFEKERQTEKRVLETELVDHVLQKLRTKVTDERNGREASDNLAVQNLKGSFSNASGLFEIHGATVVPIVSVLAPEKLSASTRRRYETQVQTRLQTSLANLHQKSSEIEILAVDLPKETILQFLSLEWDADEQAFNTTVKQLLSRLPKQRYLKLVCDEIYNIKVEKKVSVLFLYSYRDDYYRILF

Consider `CC(C)NC(=O)[C@@H]1CC[C@@H](Nc2ncc3c(Br)nn(-c4cc(C#N)c5ncccc5c4)c3n2)C1` [(1R,3R)-3-((3-bromo-1-(8-cyanoquinolin-6-yl)-1H-pyrazolo[3,4-d]pyrimidin-6-yl)amino)-N-isopropylcyclopentane-1-carboxamide], for which the IC50 under setting [1] was 25 to 200 nM.

On to `O=C(NCCO)[C@@H]1CC[C@@H](Nc2ncc3c(Br)nn(-c4ccc5ncccc5c4)c3n2)C1` [(1R,3R)-3-((3-bromo-1-(quinolin-6-yl)-1H-pyrazolo[3,4-d]pyrimidin-6-yl)amino)-N-(2-hydroxyethyl)cyclopentane-1-carboxamide], for which the IC50 under setting [1] fell in the range of 25 to 200 nM.

For `COC(=O)C1CN(C(=O)[C@@H]2CC[C@@H](Nc3ncc4c(Br)nn(-c5ccc6ncccc6c5)c4n3)C2)CCN1` (mixture of isomers), under setting [1], the IC50 lay within 25 to 200 nM.

For `CNC(=O)[C@@]1(CC(F)F)CC[C@@H](Nc2ncc3c(Br)nn(-c4ccc(-c5nnc(C)o5)cc4)c3n2)C1` [(1S,3R)-3-[[3-bromo-1-[4-(5-methyl-1,3,4-oxadiazol-2-yl)phenyl]pyrazolo[3,4-d]pyrimidin-6-yl]amino]-1-(2,2-difluoroethyl)-N-methyl-cyclopentanecarboxamide], under setting [1], the IC50 lay in the range of 25 to 200 nM.

As for `CNC(=O)[C@]1(C)CC[C@@H](Nc2ncc3c(Br)nn(-c4ccc(-c5nnc(C(C)(C)C)o5)cc4)c3n2)C1` [(1R,3R)-3-[[3-bromo-1-[4-(5-tert-butyl-1,3,4-oxadiazol-2-yl)phenyl]pyrazolo[3,4-d]pyrimidin-6-yl]amino]-N,1-dimethyl-cyclopentane-carboxamide], the IC50 under setting [1] lay within 25 to 200 nM.

As to `O=C([C@@H]1CC[C@@H](Nc2ncc3c(Br)nn(-c4cc(F)c5ncccc5c4)c3n2)C1)N1CCNC(C(F)(F)F)C1` (stereo partly drawn) [[(1R,3R)-3-[[3-bromo-1-(8-fluoro-6-quinolyl)pyrazolo[3,4-d]pyrimidin-6-yl]amino]cyclo-pentyl]-[3-(trifluoromethyl)piperazin-1-yl] methanone], the IC50 under setting [1] lay within 25 to 200 nM.

For `CNC(=O)[C@]1(C)CC[C@@H](Nc2ncc3c(Br)nn(-c4ccc(-c5ncco5)c(CNS(C)(=O)=O)c4)c3n2)C1` [(1R,3R)-3-[[3-bromo-1-[3-(methane-sulfonamidomethyl)-4-oxazol-2-yl-phenyl]pyrazolo[3,4-d]pyrimidin-6-yl]amino]-N,1-dimethyl-cyclopentanecarboxamide], under setting [1], the IC50 fell in the range of 25 to 200 nM.

Regarding `CNC(=O)C1(C)CC[C@@H](Nc2ncc3c(Br)nn(-c4cc(C#N)c5nccc(C)c5c4)c3n2)C1` (stereo partly drawn) [(3R)-3-[[3-bromo-1-(8-cyano-4-methyl-6-quinolyl)pyrazolo[3,4-d]pyrimidin-6-yl]amino]-N,1-dimethyl-cyclopentane-carboxamide], the IC50 under setting [1] was below 25 nM.

Take `O=C(NCCc1cnc[nH]1)[C@@H]1CC[C@@H](Nc2ncc3c(Br)nn(-c4ccc5ncccc5c4)c3n2)C1` [(1R,3R)-N-(2-(1H-imidazol-5-yl)ethyl)-3-((3-bromo-1-(quinolin-6-yl)-1H-pyrazolo [3,4-d]pyrimidin-6-yl)amino)cyclopentane-1-carboxamide]: the IC50 under setting [1] fell in the range of 200 to 500 nM.

Take `CNC(=O)[C@H]1C[C@H](Nc2ncc3c(Br)nn(-c4cc(Cl)cc(CO)c4)c3n2)CO1` [(2R,4S)-4-[[3-bromo-1-[3-chloro-5-(hydroxymethyl)phenyl]pyrazolo [3,4-d]pyrimidin-6-yl]amino]-N-methyl-tetrahydrofuran-2-carboxamide]: the IC50 under setting [1] was in the range of 25 to 200 nM.

As for `CNC(=O)[C@]1(C)CC[C@@H](Nc2ncc3c(Br)nn(-c4cc(C#N)cc(CC#N)c4)c3n2)C1`, the IC50 under setting [1] is 25 to 200 nM.

For `CNC(=O)[C@]1(C)CC[C@@H](Nc2ncc3c(Br)nn(-c4cc(OCC#N)c5c(c4)OCC(=O)N5C)c3n2)C1` [(1R,3R)-3-[[3-bromo-1-[5-(cyano-methoxy)-4-methyl-3-oxo-1,4-benzoxazin-7-yl]pyrazolo[3,4-d]pyrimidin-6-yl]amino]-N,1-dimethyl-cyclopentane-carboxamide], the IC50 under setting [1] is below 25 nM.

For `CN(C)C(=O)C1(NC(=O)[C@@H]2CC[C@@H](Nc3ncc4c(Br)nn(-c5cc(F)c6ncccc6c5)c4n3)C2)CC1` [(1R,3R)-3-[[3-bromo-1-(8-fluoro-6-quinolyl)pyrazolo[3,4-d]pyrimidin-6-yl]amino]-N-[1-(dimethylcarbamoyl)cyclopropyl]cyclo-pentanecarboxamide], the IC50 under setting [1] was in the range of 25 to 200 nM.

On to `CNC(=O)C1(C)CC[C@@H](Nc2ncc3c(Br)nn(-c4ccc(Cn5ccnc5)cc4)c3n2)C1` (stereo partly drawn) [(3R)-3-[[3-bromo-1-[4-(imidazol-1-ylmethyl)phenyl]pyrazolo[3,4-d]pyrimidin-6-yl]amino]-N,1-dimethyl-cyclopentanecarboxamide], for which the IC50 under setting [1] lay in the range of 25 to 200 nM.

Turning to `Cc1nnc(-c2ccc(-n3nc(Br)c4cnc(N[C@@H]5CC[C@@](C)(C(=O)O)C5)nc43)cc2CCN)s1` [(1R,3R)-3-[[1-[3-(2-aminoethyl)-4-(5-methyl-1,3,4-thiadiazol-2-yl)phenyl]-3-bromo-pyrazolo[3,4-d]pyrimidin-6-yl]amino]-1-methyl-cyclopentanecarboxylic acid], the IC50 under setting [1] was 25 to 200 nM.

For the compound `CNC(=O)[C@]1(C)CC[C@@H](Nc2ncc3c(Br)nn(-c4ccc(-c5nnc(C(=O)N6CCOCC6)s5)cc4)c3n2)C1` [(1R,3R)-3-[[3-bromo-1-[4-[5-(morpholine-4-carbonyl)-1,3,4-thiadiazol-2-yl]phenyl]pyrazolo[3,4-d]pyrimidin-6-yl]amino]-N,1-dimethyl-cyclopentanecarboxamide], under setting [1], the IC50 lay in the range of 25 to 200 nM.

In the case of `CNC(=O)[C@]1(C)CC[C@@H](Nc2ncc3c(Br)nn(-c4cc(Cl)cc(C(CN)OC)c4)c3n2)C1` (stereo partly drawn) [(1R,3R)-3-[[1-[3-(2-amino-1-methoxy-ethyl)-5-chloro-phenyl]-3-bromo-pyrazolo[3,4-d]pyrimidin-6-yl]amino]-N,1-dimethyl-cyclopentanecarboxamide; 2,2,2-trifluoroacetic acid], the IC50 under setting [1] is 25 to 200 nM.

`CNC(=O)[C@]1(C)CC[C@@H](Nc2ncc3c(Br)nn(-c4ccc(-c5nnc(C(C)CC#N)o5)cc4)c3n2)C1` (stereo partly drawn) [(1R,3R)-3-[[3-bromo-1-[4-[5-(2-cyano-1-methyl-ethyl)-1,3,4-oxadiazol-2-yl]phenyl]pyrazolo[3,4-d]pyrimidin-6-yl]amino]-N,1-dimethyl-cyclopentanecarboxamide]: the IC50 under setting [1] was below 25 nM.

Consider `CNC(=O)[C@]1(C)CC[C@@H](Nc2ncc3c(Br)nn(-c4ccc(-c5ncco5)c(CO)c4)c3n2)C1` [(1R,3R)-3-[[3-bromo-1-[3-(hydroxymethyl)-4-oxazol-2-yl-phenyl]pyrazolo[3,4-d]pyrimidin-6-yl]amino]-N,1-dimethyl-cyclopentanecarboxamide], for which the IC50 under setting [1] lay within 25 to 200 nM.

Take `COCCNC(=O)[C@@H]1CC[C@@H](Nc2ncc3c(Br)nn(-c4ccc5cnn(C)c5c4)c3n2)C1` [(1R,3R)-3-((3-bromo-1-(1-methyl-1H-indazol-6-yl)-1H-pyrazolo[3,4-d]pyrimidin-6-yl)amino)-N-(2-methoxyethyl)cyclopentane-1-carboxamide]: under setting [1], the IC50 lay within 200 to 500 nM.

For the compound `CNC(=O)[C@]1(COC)CC[C@@H](Nc2ncc3c(I)nn(-c4cc(F)c5ncccc5c4)c3n2)C1` [(1R,3R)-3-[[1-(8-fluoro-6-quinolyl)-3-iodo-pyrazolo[3,4-d]pyrimidin-6-yl]amino]-1-(methoxymethyl)-N-methyl-cyclopentane-carboxamide], the IC50 under setting [1] is below 25 nM.

In the case of `Fc1cc(-n2nc(Br)c3cnc(N[C@H]4CCOC4)nc32)cc2cccnc12` [3-bromo-1-(8-fluoro-6-quinolyl)-N-[(3S)-tetrahydrofuran-3-yl]pyrazolo [3,4-d]pyrimidin-6-amine], the IC50 under setting [1] lay within 25 to 200 nM.

`CNC(=O)[C@]1(C)CC[C@@H](Nc2ncc3c(Br)nn(-c4cc(F)c5c(c4)CCO5)c3n2)C1` [(1R,3R)-3-[[3-bromo-1-(7-fluoro-2,3-dihydro-benzofuran-5-yl)pyrazolo[3,4-d]pyrimidin-6-yl]amino]-N,1-dimethyl-cyclopentane-carboxamide]: under setting [1], the IC50 was 25 to 200 nM.

In the case of `CC1(CNC(=O)[C@@H]2CC[C@@H](Nc3ncc4c(Br)nn(-c5cc(F)c6ncccc6c5)c4n3)C2)COC1` [(1R,3R)-3-((3-bromo-1-(8-fluoroquinolin-6-yl)-1H-pyrazolo[3,4-d]pyrimidin-6-yl)amino)-N-((3-methyloxetan-3-yl)methyl)cyclopentane-1-carboxamide], under setting [1], the IC50 was 25 to 200 nM.

For the compound `CNC(=O)[C@]1(C)CC[C@@H](Nc2ncc3c(Br)nn(-c4ccn5c(=O)ccnc5c4)c3n2)C1` [(1R,3R)-3-[[3-bromo-1-(4-oxopyrido[1,2-a]pyrimidin-8-yl)pyrazolo[3,4-d]pyrimidin-6-yl]amino]-N,1-dimethyl-cyclopentane-carboxamide], the IC50 under setting [1] lay in the range of 25 to 200 nM.

As for `CNC(=O)[C@]1(C)CC[C@@H](Nc2ncc3c(Br)nn(-c4cc(C#N)c5c(c4)CCO5)c3n2)C1` [Example 50, (1R,3R)-3-((3-bromo-1-(7-cyano-2,3-dihydrobenzofuran-5-yl)-lH-pyrazolo[3,4-d]pyrimidin-6-yl)amino)-N,1-dimethylcyclopentane-1-carboxamide; 2,2,2-trifluoroacetic acid], the IC50 (GCN2 biochemical IC50, 4 nM GCN2, 2 μM ATP, 80 nM GFP-eIF2α, 90 min RT, read-out: GCN2 activity) is 25 to 200 nM.

As for `COCCNC(=O)C12CCC(Nc3ncc4c(Br)nn(-c5ccc6ncccc6c5)c4n3)(CC1)C2` [4-((3-bromo-1-(quinolin-6-yl)-1H-pyrazolo [3,4-d]pyrimidin-6-yl)amino)-N-(2-methoxyethyl)bicyclo[2.2.1]heptane-1-carboxamide], the IC50 under setting [1] lay within 200 to 500 nM.

On to `O=S(=O)(NC1CCC1)[C@@H]1CC[C@@H](Nc2ncc3c(Br)nn(-c4ccc5ncccc5c4)c3n2)C1` [(1R,3R)-3-((3-bromo-1-(quinolin-6-yl)-1H-pyrazolo[3,4-d]pyrimidin-6-yl)amino)-N-cyclobutylcyclopentane-1-sulfonamide], for which the IC50 under setting [1] lay in the range of 500 to 1000 nM.

`N#Cc1cc(-n2nc(Br)c3cnc(N[C@@H]4CC[C@@H](C(=O)N5CCN(C(=O)CO)CC5)C4)nc32)cc2cccnc12` [6-(3-bromo-6-(((1R,3R)-3-(4-(2-hydroxyacetyl)piperazine-1-carbonyl)cyclopentyl)amino)-1H-pyrazolo[3,4-d]pyrimidin-1-yl)quinoline-8-carbonitrile]: under setting [1], the IC50 lay within 25 to 200 nM.
